Results as given in ChEMBL document CHEMBL4229345, “Inhibition of trypanosome alternative oxidase without its N-terminal mitochondrial targeting signal (ΔMTS-TAO) by cationic and non-cationic 4-hydroxybenzoate and 4-alkoxybenzaldehyde derivatives active against T. brucei and T. congolense” (Eur J Med Chem, 2018).

How the values were obtained:
[1] = Selectivity index, ratio of CC50 for HFF cells to EC50 for bloodstream trypomastigote stage of wild-type Trypanosoma brucei brucei Lister 427; assay type: toxicity; conditions: human, read-out: Ratio CC50/EC50
[2] = tested on: Trypanosoma brucei brucei; assay: Anti-parasitic activity against bloodstream trypomastigote stage of wild-type Trypanosoma brucei brucei Lister 427 after 48 hrs in presence of 5 mM glycerol by resazurin-based assay; assay type: functional, organism-based; conditions: Lister 427, 48 h
[3] = tested on: Trypanosoma brucei brucei; assay: Anti-parasitic activity against bloodstream trypomastigote stage of wild-type Trypanosoma brucei brucei Lister 427 after 48 hrs by resazurin-based assay; assay type: functional, organism-based; conditions: Lister 427, 48 h
Trypanosoma brucei = assay: Anti-parasitic activity against bloodstream trypomastigote stage of pentamidine/diminazene/melaminophenyl arsenical resistant Trypanosoma brucei B48 after 48 hrs by resazurin-based assay; assay type: functional, organism-based; conditions: B48, 48 h
[4] = Resistance factor, ratio of EC50 for bloodstream trypomastigote stage of pentamidine/diminazene/melaminophenyl arsenical resistant Trypanosoma brucei B48 to EC50 for bloodstream trypomastigote stage of wild-type Trypanosoma brucei brucei Lister 427; assay type: functional
[5] = tested on: Trypanosoma brucei brucei; assay: Resistance factor, ratio of EC50 for bloodstream trypomastigote stage of wild-type Trypanosoma brucei brucei Lister 427 in presence of 5 mM glycerol to EC50 for bloodstream trypomastigote stage of wild-type Trypanosoma brucei brucei Lister 427; assay type: functional
[6] = tested on: Trypanosoma brucei brucei; assay: Resistance factor, ratio of EC50 for bloodstream trypomastigote stage of Trypanosoma brucei brucei with AQP2/3-dd knock out to EC50 for bloodstream trypomastigote stage of wild-type Trypanosoma brucei brucei Lister 427; assay type: functional
[7] = Cytotoxicity against HFF cells assessed as reduction in cell viability after 30 hrs by resazurin-based assay; conditions: human
[8] = tested on: Trypanosoma brucei brucei; assay: Anti-parasitic activity against bloodstream trypomastigote stage of Trypanosoma brucei brucei with AQP2/3-dd knock out after 48 hrs by resazurin-based assay; assay type: functional, organism-based
[9] = tested on: Trypanosoma brucei brucei; assay: Resistance factor, ratio of EC50 for bloodstream trypomastigote stage of Trypanosoma brucei brucei AQP triple knock out to EC50 for bloodstream trypomastigote stage of wild-type Trypanosoma brucei brucei Lister 427; assay type: functional
[10] = Inhibition of recombinant N-terminal His6 tagged SUMO-fused Trypanosoma brucei brucei TC221 TAO MTS deletion mutant expressed in Escherichia coli FN102 preincubated for 2 mins followed by ubiquinol-1 addition measured over 2 mins by double beam-dual wavelength UV-spectrophotometry
[11] = tested on: Trypanosoma brucei brucei; assay: Anti-parasitic activity against bloodstream trypomastigote stage of Trypanosoma brucei brucei with AQP triple knock out after 48 hrs by resazurin-based assay; assay type: functional, organism-based
Trypanosoma congolense = assay: Anti-parasitic activity against bloodstream form of Trypanosoma congolense IL3000 after 48 hrs by resazurin-based assay; assay type: functional, organism-based; conditions: IL3000, 48 h
[12] = Selectivity index, ratio of CC50 for HFF cells to EC50 for bloodstream form of Trypanosoma congolense IL3000; assay type: toxicity; conditions: human, read-out: Ratio CC50/EC50
[13] = Selectivity index, ratio of CC50 for HEK cells to EC50 for bloodstream trypomastigote stage of wild-type Trypanosoma brucei brucei Lister 427; assay type: toxicity; conditions: human, read-out: Ratio CC50/EC50
[14] = Cytotoxicity against HEK cells assessed as reduction in cell viability after 30 hrs by resazurin-based assay; conditions: human

Row | SMILES | selectivity ratio [1] | EC50 [2] [µM] | EC50 [3] [µM] | EC50 (Trypanosoma brucei) [µM] | Ratio EC50 [4] | Ratio EC50 [5] | Ratio EC50 [6] | CC50 at 30 h [7] [µM] | EC50 [8] [µM] | Ratio EC50 [9] | IC50 [10] [µM] | EC50 [11] [µM] | EC50 (Trypanosoma congolense) [µM] | selectivity ratio [12] | selectivity ratio [13] | CC50 at 30 h [14] [µM]
1 | Cc1cc(O)cc(O)c1C(=O)OCCCCCCCCCCCCCCBr | > 13 | 7.71 | 14.6 | 15.6 | 1.1 | 0.53 | 0.5 | > 200 | 7.3 | 0.47 | 0.007 | 6.8 | > 100 |  |  | 
2 | O=C(OCCCCCCCCCCCCCCCC[n+]1cccc2ccccc21)c1ccc(O)cc1O |  |  |  |  |  |  |  |  |  |  | > 5 |  |  |  |  | 
3 | Cc1cc(O)ccc1C(=O)O |  |  |  |  |  |  |  |  |  |  | 112 |  |  |  |  | 
4 | Cc1cc(O)ccc1C(=O)OCCCCCCCCCCCCCCBr | > 13 | 7.5 | 14.4 | 14.4 | 1 | 0.52 | 0.49 | > 200 | 7.1 | 0.5 | 0.007 | 7.2 |  |  |  | 
5 | O=C(NO)c1ccccc1O [SALICYLHYDROXAMIC ACID] |  |  |  |  |  |  |  |  | 31.9 |  |  | 8.9 |  |  |  | 
6 | O=C(OCCCCCCCCCCCCCCCC[P+](c1ccccc1)(c1ccccc1)c1ccccc1)c1ccc(O)cc1O |  |  |  |  |  |  |  |  |  |  | > 5 |  |  |  |  | 
7 | O=Cc1ccc(OCCCCCCCCCCCCCC[n+]2cccc3ccccc32)cc1O.[Br-] | > 114 | 1.23 | 1.75 | 2.35 | 1.3 | 0.7 | 0.54 | > 200 | 0.95 | 0.62 | 1.23 | 1.08 | 2.1 | > 95 |  | 
8 | O=C(OCCCCCCCCCCCCCCOC(=O)c1ccc(O)cc1O)c1ccc(O)cc1O |  | 15.9 | 42.1 | 36.6 | 0.87 | 0.38 | 0.67 |  | 28.2 | 0.35 | 0.0157 | 14.8 | > 100 |  | > 9 | > 400
9 | O=C(OCCCCCCCCCCCCCC[P+](c1ccccc1)(c1ccccc1)c1ccccc1)c1ccc(O)cc1O |  |  |  |  |  |  |  |  |  |  | 1.46 |  |  |  |  | 
10 | O=Cc1ccc(OCCCCCCCCCCCCCCOc2ccc(C=O)c(O)c2)cc1O |  | 400 | 400 | 400 |  |  |  | > 200 | 400 |  | 0.24 | 400 | 400 |  |  | 
11 | O=C(OCCCCCCCCCCCCCCBr)c1ccc(O)cc1O |  |  |  |  |  |  |  |  |  |  | 0.0108 |  |  |  |  | 
12 | Cc1cc(O)cc(O)c1C(=O)O [ORSELLINIC ACID] |  |  |  |  |  |  |  |  |  |  | 143 |  |  |  |  | 
13 | N=C(N)c1ccc(/N=N/Nc2ccc(C(=N)N)cc2)cc1 [DIMINAZENE] |  |  |  |  | 12 |  |  |  |  |  |  |  | 0.2 |  |  | 
14 | O=C(OCCCCCCBr)c1ccc(O)cc1O | > 11 | 12.1 | 17.7 | 20.5 | 1.2 | 0.68 | 0.65 | > 200 | 11.6 | 0.68 | 0.24 | 12.1 | 72.9 | > 2.7 |  | 
